The values that follow come from patent US20250002458A1, “SALT FORMS OF […]” (UNICYCIVE THERAPEUTICS INC., priority 2023, published 2025).

Structures are written as SMILES. Structures can show the parent of a compound that is named as a salt.

Data set [1] in a line: Stability of select salts of Compound 1 at 5, 25 and 40° C. over 6 months, purity by HPLC. Type of data set: physicochemical. As for the experimental part:
A description of the salt and the purity as determined by HPLC are provided initially and at the 1st, 2nd, 3rd, and 6th month for each salt.
Preparation of test solution: About 50.0 mg of test sample was weighed into a 25 mL of volumetric flask and diluent (10 mL) was added. The mixture was sonicated to dissolve sample and diluted up to mark with diluent and mixed well.

Data set [2] in a line: Photostability of iodide and nitrate salts (control, UV, visible). Type of data set: physicochemical. The note with it: for Total impurities: photostability. As for the experimental part: The photostability of Compound 1 iodide salt and Compound 1 nitrate salt were tested.
The photostability of Compound 2 iodide salt and Compound 2 nitrate salt were tested.

As to `C[C@H](NC(=O)OC[n+]1cccc(C(=O)NCCO[N+](=O)[O-])c1)C1CCCCC1` [Compound 1 4-Bromobesylate Salt], the Purity in data set [1] (5° C., 1st Month) came to 91.0; in data set [1] (5° C., 2nd Month), 93.1; in data set [1] (5° C., 3rd Month) it was 89.6; in data set [1] (5° C., 6th Month), 86.6; in data set [1] (5° C., Initial) it was 98.4; in data set [1] (25° C., 1st Month), 89.0. The Purity in data set [1] (25° C., 2nd Month) is given as 84.2; in data set [1] (25° C., 3rd Month) it was 76.8; in data set [1] (25° C., 6th Month), 67.6; in data set [1] (25° C., Initial), 98.4.
Regarding `C[C@H](NC(=O)OC[n+]1cccc(C(=O)NCCO[N+](=O)[O-])c1)C1CCCCC1` [Compound 1 4-Nitrobesylate Salt], the Purity in data set [1] (5° C., 1st Month) was 98.1; in data set [1] (5° C., 2nd Month), 98.1; in data set [1] (5° C., 3rd Month), 97.8; in data set [1] (5° C., 6th Month), 97.9; in data set [1] (5° C., Initial), 98.1; in data set [1] (25° C., 1st Month), 97.2. The Purity in data set [1] (25° C., 2nd Month) came out at 93.1; in data set [1] (25° C., 3rd Month), 86.8; in data set [1] (25° C., 6th Month), 80.3; in data set [1] (25° C., Initial), 98.1.
`C[C@H](NC(=O)OC[n+]1cccc(C(=O)NCCO[N+](=O)[O-])c1)C1CCCCC1` [Compound 1 Besylate Salt]: the Purity in data set [1] (5° C., 1st Month) stood at 88.8; in data set [1] (5° C., 2nd Month), 88.6; in data set [1] (5° C., 3rd Month), 87.5; in data set [1] (5° C., 6th Month) it was 86.9; in data set [1] (5° C., Initial), 96.6; in data set [1] (25° C., 1st Month), 87.1. In addition, the Purity in data set [1] (25° C., 2nd Month) was 79.3; in data set [1] (25° C., 3rd Month), 66.7; in data set [1] (25° C., 6th Month) it was 51.2; in data set [1] (25° C., Initial) it was 96.6.
On to `C[C@H](NC(=O)OC[n+]1cccc(C(=O)NCCO[N+](=O)[O-])c1)C1CCCCC1` [Compound 1 Esylate Salt], for which the Purity in data set [1] (5° C., 1st Month) is listed as 92.7; in data set [1] (5° C., 2nd Month), 92.3; in data set [1] (5° C., 3rd Month), 91.5; in data set [1] (5° C., 6th Month) it was 89.6; in data set [1] (5° C., Initial) it was 95.4; in data set [1] (25° C., 1st Month), 91.4. Besides, the Purity in data set [1] (25° C., 2nd Month) came to 84.4; in data set [1] (25° C., 3rd Month), 73.9; in data set [1] (25° C., 6th Month), 58.7; in data set [1] (25° C., Initial) it was 95.4.
Consider `C[C@H](NC(=O)OC[n+]1cccc(C(=O)NCCO[N+](=O)[O-])c1)C1CCCCC1` [Compound 1 Perchlorate Salt], for which the Purity came to 96.3 in data set [1] (5° C., 1st Month); 93.0 in data set [1] (5° C., 2nd Month); 95.7 in data set [1] (5° C., 3rd Month); 94.8 in data set [1] (5° C., 6th Month); 97.6 in data set [1] (5° C., Initial); 95.4 in data set [1] (25° C., 1st Month). In addition, the Purity in data set [1] (25° C., 2nd Month) worked out at 89.4; in data set [1] (25° C., 3rd Month), 84.9; in data set [1] (25° C., 6th Month), 74.8; in data set [1] (25° C., Initial) it was 97.6.
Take `C[C@H](NC(=O)OC[n+]1cccc(C(=O)NCCO[N+](=O)[O-])c1)C1CCCCC1` [Compound 1 Phosphate Salt]: the Purity in data set [1] (5° C., 1st Month) is 95.8; in data set [1] (5° C., 2nd Month), 93.8; in data set [1] (5° C., 3rd Month), 94.6; in data set [1] (5° C., 6th Month), 94.5; in data set [1] (5° C., Initial) it was 96.5; in data set [1] (25° C., 1st Month), 93.3. Also, the Purity in data set [1] (25° C., 2nd Month) stood at 83.7; in data set [1] (25° C., 3rd Month), 78.2; in data set [1] (25° C., 6th Month), 69.4; in data set [1] (25° C., Initial) it was 96.5; in data set [1] (40° C., 1st Month), 91.4; in data set [1] (40° C., 2nd Month), 63.1. The Purity in data set [1] (40° C., 3rd Month) worked out at 50.9; in data set [1] (40° C., 6th Month) it was 50.5; in data set [1] (40° C., Initial), 96.5.
For `C[C@H](NC(=O)OC[n+]1cccc(C(=O)NCCO[N+](=O)[O-])c1)C1CCCCC1` [Compound 1 Sulphate Salt], the Purity is 90.7 in data set [1] (5° C., 1st Month); 87.9 in data set [1] (5° C., 2nd Month); 91.1 in data set [1] (5° C., 3rd Month); 90.9 in data set [1] (5° C., 6th Month); 94.7 in data set [1] (5° C., Initial); 90.0 in data set [1] (25° C., 1st Month). Further, the Purity in data set [1] (25° C., 2nd Month) worked out at 56.9; in data set [1] (25° C., 3rd Month), 33.7; in data set [1] (25° C., 6th Month), 23.5; in data set [1] (25° C., Initial), 94.7; in data set [1] (40° C., 1st Month) it was 75.6; in data set [1] (40° C., 2nd Month), 8.3. The Purity amounted to 0.9 in data set [1] (40° C., 3rd Month); 1.5 in data set [1] (40° C., 6th Month); 94.7 in data set [1] (40° C., Initial).
As for `C[C@H](NC(=O)OC[n+]1cccc(C(=O)NCCO[N+](=O)[O-])c1)C1CCCCC1` [Compound 1 Triflate Salt], the Purity came to 95.0 in data set [1] (5° C., 1st Month); 95.0 in data set [1] (5° C., 2nd Month); 94.8 in data set [1] (5° C., 3rd Month); 96.1 in data set [1] (5° C., 6th Month); 96.6 in data set [1] (5° C., Initial); 94.4 in data set [1] (25° C., 1st Month). Besides, the Purity is listed as 91.1 in data set [1] (25° C., 2nd Month); 85.8 in data set [1] (25° C., 3rd Month); 78.5 in data set [1] (25° C., 6th Month); 96.6 in data set [1] (25° C., Initial).
Regarding `C[C@H](NC(=O)OC[n+]1cccc(C(=O)NCCO[N+](=O)[O-])c1)C1CCCCC1` [Compound 1 Trifluoroacetate Salt], the Purity in data set [1] (5° C., 1st Month) was 97.2; in data set [1] (5° C., 2nd Month), 96.6; in data set [1] (5° C., 3rd Month), 97.0; in data set [1] (5° C., 6th Month), 97.2; in data set [1] (5° C., Initial), 98.6; in data set [1] (25° C., 1st Month), 96.5. For the same molecule, the Purity is recorded as 94.6 in data set [1] (25° C., 2nd Month); 92.2 in data set [1] (25° C., 3rd Month); 85.9 in data set [1] (25° C., 6th Month); 98.6 in data set [1] (25° C., Initial).
With `C[C@H](NC(=O)OC[n+]1cccc(C(=O)NCCO[N+](=O)[O-])c1)C1CCCCC1` [Compound 1 iodide salt], the Total impurities in data set [2] (UV) worked out at 0.27; in data set [2] (Visible), 0.60; in data set [2] (control sample), 0.07.
On to `C[C@H](NC(=O)OC[n+]1cccc(C(=O)NCCO[N+](=O)[O-])c1)C1CCCCC1` [Compound 1 nitrate salt], for which, in data set [2] (exposed to both UV and visible light), the “Total impurities compared with the iodide salt” value is reported as “less than the impurities in Compound 1 iodide salt”. Moreover, the values for the Total impurities in data set [2] (UV), in data set [2] (Visible) and in data set [2] (control sample) were 0.21, 0.16 and 0.06, respectively.
